Each compound was assayed against SARS2 coronavirus 3CL protease (Severe acute respiratory syndrome coronavirus 2, UniProt P0DTD1) (assay: biochemical). Settings: 5 nM enzyme, 30 min pre-incubation with compound, 15 μM peptide substrate, 4 h at room temperature; read-out: FRET Potency (nM); IC50 values in the SARS2 3CLPro FRET assay.

| SMILES | IC50 |
| --- | --- |
| CNC(=O)C(=O)[C@H](C[C@@H]1CCNC1=O)NC(=O)c1cc(Cl)ccc1NC(=O)OC(C)(C)C [Example 142, tert-butyl N-[4-chloro-2-[[(1S)-3-(methylamino)-2,3-dioxo-1-[[(3S)-2-oxopyrrolidin-3-yl]methyl]propyl]carbamoyl]phenyl]carbamate] | 41.1 nM |
| CNC(=O)C(=O)[C@H](C[C@@H]1CCNC1=O)NC(=O)c1cc(Cl)ccc1NC(=O)[C@H]1CC1(F)F [Example 143, 5-chloro-2-[[(1R)-2,2-difluorocyclopropanecarbonyl]amino]-N-[(1S)-3-(methylamino)-2,3-dioxo-1-[[(3S)-2-oxopyrrolidin-3-yl]methyl]propyl]benzamide] | 3 nM |
| CNC(=O)C(=O)[C@H](C[C@@H]1C[C@@H](C)NC1=O)NC(=O)c1cc(Cl)c(Cl)cc1NC(=O)OC [Example 144, methyl N-[4,5-dichloro-2-[[(1S)-3-(methylamino)-1-[[(3S,5R)-5-methyl-2-oxo-pyrrolidin-3-yl]methyl]-2,3-dioxo-propyl]carbamoyl]phenyl] carbamate] | 5.3 nM |
| C[C@@H]1C[C@@H](C[C@H](NC(=O)c2cc(Cl)ccc2NC(=O)C2CC2)C(=O)C(=O)NC2CC2)C(=O)N1 [Example 145, 5-chloro-2-(cyclopropanecarbonylamino)-N-[(1S)-3-(cyclopropylamino)-1-[[(3S,5R)-5-methyl-2-oxo-pyrrolidin-3-yl]methyl]-2,3-dioxo-propyl]benzamide] | 26.8 nM |
| O=C(Nc1ccc(Cl)cc1C(=O)N[C@@H](C[C@@H]1CCNC1=O)C(=O)C(=O)NC1CC1)OC1CC1 [Example 146, cyclopropyl N-[4-chloro-2-[[(1S)-3-(cyclopropylamino)-2,3-dioxo-1-[[(3S)-2-oxopyrrolidin-3-yl]methyl]propyl]carbamoyl]phenyl]carbamate] | 3.9 nM |
| CC(C)C(=O)Nc1ccc(Cl)cc1C(=O)N[C@@H](C[C@@H]1C[C@@H](C)NC1=O)C(=O)C(=O)NC1CC1 [Example 147, 5-chloro-N-[(1S)-3-(cyclopropylamino)-1-[[(3S,5R)-5-methyl-2-oxo-pyrrolidin-3-yl]methyl]-2,3-dioxo-propyl]-2-(2-methylpropanoylamino) benzamide] | 11.6 nM |
| C[C@@H]1C[C@@H](C[C@H](NC(=O)c2cc(Cl)ccc2NC(=O)N(C)C)C(=O)C(=O)NC2CC2)C(=O)N1 [Example 148, 5-chloro-N-[(1S)-3-(cyclopropylamino)-1-[[(3S,5R)-5-methyl-2-oxo-pyrrolidin-3-yl]methyl]-2,3-dioxo-propyl]-2-(dimethylcarbamoylamino) benzamide] | 24.7 nM |
| CNC(=O)C(=O)[C@H](C[C@@H]1C[C@@H](C)NC1=O)NC(=O)c1cc(Cl)ccc1NC(=O)C1CN(C)C1 [Example 149, N-[4-chloro-2-[[(1S)-3-(methylamino)-1-[[(3S,5R)-5-methyl-2-oxo-pyrrolidin-3-yl]methyl]-2,3-dioxo-propyl]carbamoyl]phenyl]-1-methyl-azetidine-3-carboxamide] | 10.8 nM |
| O=C(Nc1cc(F)c(F)cc1C(=O)N[C@@H](C[C@@H]1CCNC1=O)C(=O)C(=O)NC1CC1)OC1CC1 [Example 150] | 17.9 nM |
| CNC(=O)C(=O)[C@H](C[C@@H]1C[C@@H](C)NC1=O)NC(=O)c1cc(Cl)ccc1NC(=O)OC1CCC1 [Example 151, cyclobutyl N-[4-chloro-2-[[(1S)-3-(methylamino)-1-[[(3S,5R)-5-methyl-2-oxo-pyrrolidin-3-yl]methyl]-2,3-dioxo-propyl]carbamoyl]phenyl] carbamate] | 5.1 nM |
| CNC(=O)C(=O)[C@H](C[C@@H]1C[C@@H](C)NC1=O)NC(=O)c1cc(Cl)ccc1NC(=O)OCC1CC1 [Example 152, cyclopropylmethyl N-[4-chloro-2-[[(1S)-3-(methylamino)-1-[[(3S,5R)-5-methyl-2-oxo-pyrrolidin-3-yl]methyl]-2,3-dioxo-propyl]carbamoyl]phenyl] carbamate] | 5 nM |
| CNC(=O)C(=O)[C@H](C[C@@H]1C[C@@H](C)NC1=O)NC(=O)c1cc(Cl)ccc1NC(=O)OC(C)(C)C [Example 153, tert-butyl N-[4-chloro-2-[[(1S)-3-(methylamino)-1-[[(3S,5R)-5-methyl-2-oxo-pyrrolidin-3-yl]methyl]-2,3-dioxo-propyl]carbamoyl]phenyl] carbamate] | 39.8 nM |
| CNC(=O)C(=O)[C@H](C[C@@H]1C[C@@H](C)NC1=O)NC(=O)c1cc(Cl)c(F)cc1NC(=O)OC1CC1 [Example 154, cyclopropyl N-[4-chloro-5-fluoro-2-[(1S)-3-(methylamino)-1-[[(3S,5R)-5-methyl-2-oxo-pyrrolidin-3-yl]methyl]-2,3-dioxo-propyl]carbamoyl]phenyl] carbamate] | 4.5 nM |
| CNC(=O)C(=O)[C@H](C[C@@H]1C[C@@H](C)NC1=O)NC(=O)c1cc(F)c(Cl)cc1NC(=O)OC1CC1 [Example 155, cyclopropyl N-[5-chloro-4-fluoro-2-[[(1S)-3-(methylamino)-1-[[(3S,5R)-5-methyl-2-oxo-pyrrolidin-3-yl]methyl]-2,3-dioxo-propyl]carbamoyl]phenyl] carbamate] | 30.4 nM |
| CNC(=O)C(=O)[C@H](C[C@@H]1CCNC1=O)NC(=O)c1cc(Cl)ccc1NC(=O)OC1CC1(F)F (stereo partly shown) [Example 156] | 14.6 nM |
| CNC(=O)C(=O)[C@H](C[C@@H]1CCNC1=O)NC(=O)c1cc(Cl)ccc1NC(=O)OC1CC1(F)F (stereo partly drawn) [Example 157, (2,2-difluorocyclopropyl) N-[4-chloro-2-[[(1S)-3-(methylamino)-2,3-dioxo-1-[[(3S)-2-oxopyrrolidin-3-yl]methyl]propyl]carbamoyl]phenyl]carbamate] | 8.9 nM |
| C[C@@H]1C[C@@H](C[C@H](NC(=O)c2cc(Cl)ccc2NC(=O)CCC(F)(F)F)C(=O)C(N)=O)C(=O)N1 [Example 158, N-[(1S)-3-amino-1-[[(3S,5R)-5-methyl-2-oxo-pyrrolidin-3-yl]methyl]-2,3-dioxo-propyl]-5-chloro-2-(4,4,4-trifluorobutanoylamino) benzamide] | 8.3 nM |
| CNC(=O)C(=O)[C@H](C[C@@H]1CCNC1=O)NC(=O)c1cc(Cl)ccc1NC(=O)CCC(F)(F)F [Example 159, 5-chloro-N-[(1S)-3-(methylamino)-2,3-dioxo-1-[[(3S)-2-oxopyrrolidin-3-yl]methyl]propyl]-2-(4,4,4-trifluorobutanoylamino) benzamide] | 7.9 nM |
| C[C@@H]1C[C@@H](C[C@H](NC(=O)c2cc(Cl)ccc2NC(=O)OC2CC2)C(=O)C(=O)NC2CC2)C(=O)N1 [Example 160, cyclopropyl N-[4-chloro-2-[[(1S)-3-(cyclopropylamino)-1-[[(3S,5R)-5-methyl-2-oxo-pyrrolidin-3-yl]methyl]-2,3-dioxo-propyl]carbamoyl]phenyl] carbamate] | 8.8 nM |
| O=C(Nc1ccc(Cl)cc1C(=O)N[C@@H](C[C@@H]1CCNC1=O)C(=O)C(=O)NC1CC1)OC1CCC1 [Example 161, cyclobutyl N-[4-chloro-2-[[(1S)-3-(cyclopropylamino)-2,3-dioxo-1-[[(3S)-2-oxopyrrolidin-3-yl]methyl]propyl]carbamoyl]phenyl]carbamate] | 5.9 nM |
| O=C(Nc1ccc(Cl)cc1C(=O)N[C@@H](C[C@@H]1CCNC1=O)C(=O)C(=O)NC1CC1)OCC1CC1 [Example 162, cyclopropylmethyl N-[4-chloro-2-[[(1S)-3-(cyclopropylamino)-2,3-dioxo-1-[[(3S)-2-oxopyrrolidin-3-yl]methyl]propyl]carbamoyl]phenyl]carbamate] | 7.5 nM |
| CNC(=O)C(=O)[C@H](C[C@@H]1CCNC1=O)NC(=O)c1cc(Cl)ccc1NC(=O)OCC(F)(F)F [Example 163, 2,2,2-trifluoroethyl N-[4-chloro-2-[[(1S)-3-(methylamino)-2,3-dioxo-1-[[(3S)-2-oxopyrrolidin-3-yl]methyl]propyl]carbamoyl]phenyl]carbamate] | 8.6 nM |
| CO[C@H](C)C(=O)Nc1ccc(Cl)cc1C(=O)N[C@@H](C[C@@H]1C[C@@H](C)NC1=O)C(=O)C(=O)NC1CC1 [Example 164, 5-chloro-N-[(1S)-3-(cyclopropylamino)-1-[[(3S,5R)-5-methyl-2-oxo-pyrrolidin-3-yl]methyl]-2,3-dioxo-propyl]-2-[[(2R)-2-methoxypropanoyl]amino] benzamide] | 4.8 nM |
| C[C@@H]1C[C@@H](C[C@H](NC(=O)c2cc(Cl)ccc2NC(=O)C(C)(C)O)C(=O)C(=O)NC2CC2)C(=O)N1 [Example 165, 5-chloro-N-[(1S)-3-(cyclopropylamino)-1-[[(3S,5R)-5-methyl-2-oxo-pyrrolidin-3-yl]methyl]-2,3-dioxo-propyl]-2-[(2-hydroxy-2-methyl-propanoyl)amino]benzamide] | 6.3 nM |
| CO[C@@H](C)C(=O)Nc1ccc(Cl)cc1C(=O)N[C@@H](C[C@@H]1C[C@@H](C)NC1=O)C(=O)C(=O)NC1CC1 [Example 166, 5-chloro-N-[(1S)-3-(cyclopropylamino)-1-[[(3S,5R)-5-methyl-2-oxo-pyrrolidin-3-yl]methyl]-2,3-dioxo-propyl]-2-[[(2S)-2-methoxypropanoyl]amino] benzamide] | 10.1 nM |
| CNC(=O)C(=O)[C@H](C[C@@H]1C[C@@H](C)NC1=O)NC(=O)c1cc(Cl)ccc1NC(=O)OC1CCCC1 [Example 167, cyclopentyl N-[4-chloro-2-[[(1S)-3-(methylamino)-1-[[(3S,5R)-5-methyl-2-oxo-pyrrolidin-3-yl]methyl]-2,3-dioxo-propyl]carbamoyl]phenyl] carbamate] | 5.5 nM |
| O=C(NC1CC1)C(=O)[C@H](C[C@@H]1CCNC1=O)NC(=O)c1cc(Cl)ccc1NC(=O)[C@H]1CC1(F)F [Example 168] | 12 nM |
| CNC(=O)C(=O)[C@H](C[C@@H]1C[C@@H](C)NC1=O)NC(=O)c1cc(C(F)(F)F)ccc1NC(=O)OC1CC1 [Example 169, cyclopropyl N-[2-[(1S)-3-(methylamino)-1-[[(3S,5R)-5-methyl-2-oxo-pyrrolidin-3-yl]methyl]-2,3-dioxo-propyl]carbamoyl]-4-(trifluoromethyl)phenyl] carbamate] | 75.3 nM |

Source: patent US20240228535A1 (priority 2022, published 2024)
